Assay results as given in patent US20070199084A1, “Ubiquitination of Membrane Transporters” (VANDERBILT UNIVERSITY, priority 2005, published 2007).
Residues, ends and D or L forms follow the SMILES beside them. *: point of attachment. Cbz = O=C(OCc1ccccc1)*

Key:
NET [1] = target: T1, NET (Homo sapiens, UniProt P23975); assay: NET proteins (total) by immunoblot with anti-NET in transfected CAD cells; format: cell-based; parameters: dose or concentration left out as unconfirmed; settings: CAD cells transfected with NET and Ub; preincubated 4 hrs prior to lysis
T1 construct: expressed in transfected cells; host or cells: CAD cells (transient, co-transfected with HA-Ub)
Experimental: (§1) Acute regulation of NET ubiquitination by PMA and methacholine (meth) was assessed. […] One mM PMA and 1 mM meth both increased ubiquitination of NET (FIG. 3). Chronic regulation of ubiquitination of NET was assessed in CAD cells transfected with NET and HA-Ub. […] FIGS. 5A-5B.

hNET = assay: NE transport assay in CAD-his-hNET cells; format: cell-based, human; parameters: dose or concentration left out as unconfirmed; settings: incubated 0, 1, 4 and 24 hrs prior to NE transport assay; triplicates
Experimental: FIG. 5A—Inhibition of proteasomes influence NET transport in cells. CAD-his-hNET cells in 24 well plates were incubated in MG132 ([…]) for 0, 1, 4 and 24 hrs prior to NE transport assay in triplicates.
Transport Assay. CAD-his-hNET cells in 24 well plates were incubated in MG132 ([…]) for 0, 1, 4 and 24 hrs prior to NE transport assay in triplicates. Protein Assay. CAD cells transfected with NET and Ub were preincubated with MG132 for 4 hrs prior to cell lysis and immunoblot with anti-NET for protein analysis.

NET [2] = target: T1, NET; assay: Ubiquitination of NET: IP with anti-HA (Ub), immunoblot with anti-NET, in transfected CAD cells; format: cell-based; settings: CAD cells transfected with NET and HA-Ub; 1 mM, pre-incubated 30 min at 37° C. before IP; vs vehicle
Experimental: Prior to IP, cells were pre-incubated in media containing either vehicle (control), 1 mM PMA, or 1 mM methacholine (meth) for 30 min. PMA and methacholine increased ubiquitination of NET.
as §1

dopamine transporter = target: T2, dopamine transporter (Canis lupus familiaris, UniProt A0A8I3S5A0); settings: cited from earlier work
T2 construct: digitonin-solubilized dopamine transporters from dog caudate nucleus; from tissue; host or cells: dog caudate nucleus, digitonin-solubilized extract

CAD cells = assay: Ponceau-S staining of the total membrane (other cellular proteins); settings: desipramine treatment for 3 days
[3] = digitonin-solubilized extract of dog caudate

T1 sequence (P23975 whole entry): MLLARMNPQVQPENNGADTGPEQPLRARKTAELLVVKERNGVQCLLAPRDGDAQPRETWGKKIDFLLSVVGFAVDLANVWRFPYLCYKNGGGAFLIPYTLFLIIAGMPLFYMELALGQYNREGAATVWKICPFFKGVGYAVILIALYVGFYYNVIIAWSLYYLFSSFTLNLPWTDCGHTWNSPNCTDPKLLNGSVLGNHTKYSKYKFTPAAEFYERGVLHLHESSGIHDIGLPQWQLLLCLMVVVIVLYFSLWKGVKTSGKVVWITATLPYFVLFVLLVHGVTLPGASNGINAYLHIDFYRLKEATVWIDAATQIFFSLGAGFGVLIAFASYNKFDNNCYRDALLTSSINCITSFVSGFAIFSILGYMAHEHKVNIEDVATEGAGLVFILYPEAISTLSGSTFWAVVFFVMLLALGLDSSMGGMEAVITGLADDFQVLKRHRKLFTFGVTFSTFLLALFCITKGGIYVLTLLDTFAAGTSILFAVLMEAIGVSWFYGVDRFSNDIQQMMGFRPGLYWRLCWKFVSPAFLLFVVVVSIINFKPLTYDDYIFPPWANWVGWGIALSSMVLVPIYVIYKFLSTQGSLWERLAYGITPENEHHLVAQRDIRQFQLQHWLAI
T2 sequence (A0A8I3S5A0 1-617): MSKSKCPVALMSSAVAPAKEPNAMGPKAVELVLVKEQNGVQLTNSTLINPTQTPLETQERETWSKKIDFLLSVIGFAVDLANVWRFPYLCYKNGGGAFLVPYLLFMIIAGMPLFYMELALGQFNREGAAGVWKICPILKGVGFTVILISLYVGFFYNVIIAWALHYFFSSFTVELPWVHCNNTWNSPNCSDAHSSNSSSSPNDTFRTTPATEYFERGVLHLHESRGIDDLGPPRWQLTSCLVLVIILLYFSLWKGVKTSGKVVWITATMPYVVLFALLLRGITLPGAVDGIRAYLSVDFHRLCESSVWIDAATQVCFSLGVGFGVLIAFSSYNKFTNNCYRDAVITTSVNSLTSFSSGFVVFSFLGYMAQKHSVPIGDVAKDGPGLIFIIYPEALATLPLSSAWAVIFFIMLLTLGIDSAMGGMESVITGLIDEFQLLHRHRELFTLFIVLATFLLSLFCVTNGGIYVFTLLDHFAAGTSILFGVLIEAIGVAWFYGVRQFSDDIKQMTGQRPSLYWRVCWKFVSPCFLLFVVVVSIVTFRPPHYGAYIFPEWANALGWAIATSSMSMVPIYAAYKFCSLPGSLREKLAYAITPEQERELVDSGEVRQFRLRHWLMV

In the case of `CC(C)C[C@@H](C=O)NC(=O)[C@H](CC(C)C)NC(=O)[C@H](CC(C)C)NC(=O)OCc1ccccc1` [MG132] (Cbz-Leu-Leu-Leu-aldehyde), the NET protein concentration (NET [1]) is reported as “increase” and the NET transport (hNET) is reported as “increase”.
For `CC(=O)OC(C)C[N+](C)(C)C` (stereo not shown) [meth, methacholine], the “ubiquitination of NET (acute regulation)” value (NET [2]) was “increased”.
In the case of `CCCCCCCCCCCCCC(=O)O[C@@H]1[C@@H](C)[C@@]2(O)[C@@H](C=C(CO)C[C@]3(O)C(=O)C(C)=C[C@@H]23)[C@@H]2C(C)(C)[C@]12OC(C)=O` [PMA], the “ubiquitination of NET (acute regulation)” value (NET [2]) is reported as “increased”.
In the case of `COC(=O)C1C(OC(=O)c2ccccc2)CC2CCC1N2C` (single isomer, unassigned; (+)) [(+)-cocaine], the “inhibition of soluble [3H]WIN 35,428 binding (competition studies)” value (from here on “inhibition of soluble”) (dopamine transporter; [3]) is given as “weakly”.
For `COC(=O)[C@H]1[C@@H](c2ccc(F)cc2)C[C@@H]2CC[C@H]1N2C` [[^3H]WIN 35,428], the Kd (dopamine transporter; digitonin-solubilized extract of dog caudate, read-out: Kd of binding) is listed as 16 nM.
In the case of `OC1(c2ccc(Cl)cc2)c2ccccc2C2=NCCN21` (stereo not shown) [mazindol], the “inhibition of soluble” value (dopamine transporter; [3]) is given as “strongly”.
In the case of (−)-cocaine, the “potency compared to assays using [3H]GBR 12935” value (dopamine transporter; competition against [3H]WIN 35,428) is given as “relatively more potent”.
For `CNCCCN1c2ccccc2CCc2ccccc21` [Desipramine, desipramine], the “amounts of other cellular proteins (Ponceau-S stain of total membrane)” value (CAD cells) is given as “no change” and the “inhibition of soluble” value (dopamine transporter; [3]) is given as “weakly”.
